Data taken from paper PMC11317440, “Soloxolone para-methylanilide effectively suppresses aggressive phenotype of glioblastoma cells including TGF-β1-induced glial-mesenchymal transition in vitro and inhibits growth of U87 glioblastoma xenografts in mice” (Frontiers in Pharmacology, 2024).
pIC50: −log10 of the molar value.

Key:
U87 primary tumorspheres = assay: Primary tumorsphere growth, U87; format: cell-based, human
Description: (§1) For evaluation of spheroid growth, the bottom of the 96-well plate was covered with 1% agarose for non-adherent conditions. U87 cells (5,000 cells/well) were then seeded and allowed to form spheroids for 24 h, after which increasing concentrations of compound 7 (0–1,000 nM) were added (n = 8). Every other day of the 10-day experiment, fresh medium supplemented with compound 7 was added to half of the medium, and the spheroids were photographed using a camera-equipped ZEISS Primo Vert microscope (Carl Zeiss Microscopy GmbH, Jena, Germany). To assess the formation of secondary tumorspheres, cells were dissociated from primary tumorspheres after 4 days of compound 7 stimulation using TrypLE Express and were then seeded into agarose-coated 96-well plates (n = 8). On day 3, the resulting secondary spheroids were examined microscopically. Primary and secondary spheroid areas were quantified using ImageJ.

EPNT-5 cells [1] = assay: MTT assay 72 h, 7 and TMZ alone and combined, synergy (HSA), EPNT-5; format: cell-based, mouse
Description: The drug synergy score was calculated for the dose-response matrix according to the highest single-agent (HSA) model using the SynergyFinder + web application (https://www.synergyfinder.org/).

[2] = Toxicity assessment in U87 glioblastoma-bearing mice; format: in vivo, athymic nude mice; conditions: 7 20 mg/kg i.p. or TMZ 10 mg/kg i.p. injected alone
Description: During the experiment, the general status and body weight of the animals were monitored. At the end of the experiment, livers and kidneys were collected and organ indices were calculated as (organ weight/body weight) × 100%, followed by the normalization of organ indices of experimental mice to organ indices of control mice.

[3] = test system: U87 secondary tumorspheres; assay: Secondary tumorsphere formation, U87; format: cell-based, human
Description: as §1

[4] = test system: TGF-β1-treated U118 cells; assay: Adhesion of U118 cells to culture plastic (TrypLE treatment, MTT); format: cell-based, human; conditions: TGF-β1 50 ng/mL, 7 50 nM, 48 h
Description: Adhesiveness of glioblastoma cells was assessed by two independent methods. First, cell adhesion to culture plastic was tested using a trypsin treatment assay, as previously described ([Sava et al., 2004]; [Mazuryk et al., 2015]; [van Dijk et al., 2017]). Briefly, U87 and U118 cells (10,000 cells per well of a 96-well plate, n = 4) were cultured with TGF-β1 (50 ng/mL) and non-toxic concentrations of soloxolone amides for 48 h and then treated with a 1:20 dilution of TrypLE Express (Gibco, USA) in PBS for 3 min at 37°C. Non-adherent cells were then removed by a triple PBS wash, and the remaining adherent cells were fixed with 4% formaldehyde and stained with crystal violet dye (0.1% w/v). Images were captured using the iBright 1,500 Imaging System (Invitrogen, USA), and the cell-occupied area was calculated using ImageJ. Alternatively, the number of adherent cells was quantified using the MTT assay.

[5] = test system: aldehyde dehydrogenase (ALDH) activity in U87 primary tumorspheres; assay: ALDH activity in U87 tumorspheres (AldeRed, flow cytometry); format: cell-based, human; conditions: 7 at 50 and 100 nM, regardless of the dose, 4 days
Description: To assess ALDH activity, U87 cells were dissociated from spheroids using TrypLE Express after 4 days of induction with compound 7 (0–100 nM) (n = 3). Cells were then stained with the AldeRed ALDH Detection Assay (SCR150; EMD Millipore, Burlington, MA, USA) according to the manufacturer’s protocol. Experimental controls included U87 cells grown in 2D culture and cells treated with the ALDH inhibitor diethylaminobenzaldehyde (DEAB). Gates of ALDH-positive cells were set according to the inhibitory effect of DEAB on control cells.
After staining, 10,000 cells per sample were analyzed on a NovoCyte flow cytometer using NovoExpress software (ACEA Biosciences, Inc., USA).

EPNT-5 cells [6] = assay: Colony formation assay, EPNT-5 cells; format: cell-based, mouse; conditions: 10 days
Description: (§2) U87, U118 and EPNT-5 cells were seeded at a density of 200 cells/well in 96-well plates and treated with increasing concentrations of compound 7 (0–1,000 nM) dissolved in 10% FBS-containing DMEM (n = 5). On day 10, colonies were fixed with 4% formaldehyde and stained with crystal violet dye (0.1% w/v). Images were captured using the iBright 1,500 Imaging System (Invitrogen, USA) and the area of colonies with a minimum diameter of 100 µm was calculated using ImageJ. In the case of overlapping colonies, their total area was calculated. Finally, the area of the formed cell colonies was summed and normalized to the total colony area in the control.

U87 cells = assay: Colony formation assay, U87 cells; format: cell-based, human; conditions: 10 days
Description: as §2

TGF-β1-treated U87 cells = assay: ECM adhesion assay (Matrigel), U87 cells; format: cell-based, human; conditions: TGF-β1 50 ng/mL, 7 50 nM, 48 h
Description: Second, to assess cell adhesion to the extracellular matrix (ECM), an ECM adhesion assay was performed according to previously published method ([Guan et al., 2015]; [Hu et al., 2019]). Briefly, U87 cells were pretreated with TGF-β1 (50 ng/mL) and compound 7 (50 nM) for 48 h, and then seeded in 96-well plates coated with Matrigel (BD Biosciences, Bedford, MA, USA) at a concentration of 30,000 cells for 1 h (n = 3). After that, the wells were washed to remove non-adherent cells, adherent cells were fixed with formaldehyde, stained with crystal violet dye, and analyzed as described above.

[7] = U87 primary tumorspheres, 7 1,000 nM

With `Cc1ccc(NC(=O)[C@@]2(C)CC[C@]3(C)CC[C@]4(C)[C@H](C(=O)C=C5[C@@]6(C)C=C(C#N)C(=O)C(C)(C)C6CC[C@]54C)[C@@H]3C2)cc1` (stereo partly drawn) [compound 7, N-p-tolyl-2-cyano-3,12-dioxo-18βH-olean-9(11),1(2)-dien-30-amide] as the molecule, how does the “increase of spheroid growth compared to control” value (U87 primary tumorspheres; U87 primary tumorspheres, 7 50 nM, p-value <0.05) read?
The value was 21%.

And the “increase of spheroid growth compared to control” value (U87 primary tumorspheres; U87 primary tumorspheres, 7 100 nM, not statistically significant)?
Its value is 10.4%.

And the spheroid growth (U87 primary tumorspheres; U87 primary tumorspheres, 7 450 nM)?
The spheroid growth was “stopping it after 4 days”.

And the “reduction of tumorsphere size compared to control by day 10” value (U87 primary tumorspheres; [7])?
The value was 28.6%.

What about the spheroid growth (U87 primary tumorspheres; [7]) of the same molecule?
Its spheroid growth is “completely blocking it”.

What about the “concentration causing a large-scale reduction of spheroids” value (U87 primary tumorspheres; U87 tumorspheres) of the same molecule?
The value was 1 µM.

And the “effect of 7 on TMZ cytotoxicity in EPNT-5 cells” value (EPNT-5 cells [1]; 7 at 50 nM)?
The value was “antagonistic effect”.

And the pIC50 (EPNT-5 cells [1]; Mus musculus, MTT)?
Its pIC50 is 6.70.

What about the “toxic effects (body weight and organ indices)” value [2] of the same molecule?
The value was “no toxic effects”.

And the “increase of secondary tumorsphere area” value ([3]; U87, 7 50 nM for 4 days, p-value <0.01)?
Its value is 22.6%.

And the “increase of secondary tumorsphere area” value ([3]; U87, 7 100 nM for 4 days, not statistically significant)?
Its value is 6.6%.

What about the “decrease of secondary tumorsphere area” value ([3]; U87, 7 450 nM for 4 days) of the same molecule?
The value was 23.9%.

What about the “decrease of secondary tumorsphere area” value ([3]; U87, 7 1,000 nM for 4 days) of the same molecule?
Its value is 84.1%.

What about the “TGF-β1-induced decrease in U118 cell adhesion to culture plastic” value [4] of the same molecule?
Its value is “effectively reversed”.

And the “reduction of the number of ALDH+ cells compared to the control” value [5]?
Its value is 2.3 fold.

What about the colony growth (EPNT-5 cells [6]; EPNT-5, 7 450 nM) of the same molecule?
The colony growth was “complete abrogation of colony growth”.

What about the colony growth (EPNT-5 cells [6]; EPNT-5, 7 1,000 nM) of the same molecule?
Its colony growth is “complete abrogation of colony growth”.

What about the inhibition at 0.05 µM (EPNT-5 cells [6]; Mus musculus, 240 h, EPNT-5, 7 50 nM) of the same molecule?
The inhibition at 0.05 µM was 56.1%.

What about the inhibition at 0.1 µM (EPNT-5 cells [6]; Mus musculus, 240 h, EPNT-5, 7 100 nM) of the same molecule?
Its inhibition at 0.1 µM is 69%.

And the inhibition at 0.05 µM (U87 cells; Homo sapiens, U-87 MG, 240 h, U87, 7 50 nM)?
The inhibition at 0.05 µM was 48.7%.

And the inhibition at 0.1 µM (U87 cells; Homo sapiens, U-87 MG, 240 h, U87, 7 100 nM)?
Its inhibition at 0.1 µM is 74.2%.

And the colony area (U87 cells; U87, 7 50 nM)?
Its colony area is 51.3%.

What about the colony area (U87 cells; U87, 7 1,000 nM) of the same molecule?
Its colony area is 3.9%.

And the “TGF-β1-induced adhesion of U87 cells to Matrigel” value (TGF-β1-treated U87 cells)?
Its value is “effectively suppressed this induction to almost control levels”.
